# Experimental data as given in ChEMBL document CHEMBL1140860, “Synthesis and evaluation of dihydroartemisinin and dihydroartemisitene acetal dimers showing anticancer and antiprotozoal activity” (Bioorg Med Chem, 2009).
# Tests used:
# [1] = tested on: CCRF-CEM; assay: Growth inhibition of human CCRF-CEM cells after 48 hrs by sulforhodamine B assay; type: functional
# [2] = tested on: SF-539; assay: Growth inhibition of human SF539 cells after 48 hrs by sulforhodamine B assay; type: functional; details: SF-539, 48 h
# [3] = Selectivity index, ratio of TC50 for african green monkey (Cercopithecus aethiops) Vero cells to IC50 for chloroquine-sensitive Plasmodium falciparum D6; type: toxicity, cell-based
# [4] = tested on: EKVX; assay: Growth inhibition of human EKVX cells after 48 hrs by sulforhodamine B assay; type: functional
# [5] = tested on: MOLT-4; assay: Growth inhibition of human MOLT4 cells after 48 hrs by sulforhodamine B assay; type: functional; details: MOLT-4, 48 h
# [6] = tested on: HCT-116; assay: Growth inhibition of human HCT116 cells after 48 hrs by sulforhodamine B assay; type: functional; details: HCT-116, 48 h
# [7] = tested on: NCI-H322M; assay: Growth inhibition of human NCI-H322M cells after 48 hrs by sulforhodamine B assay; type: functional
# [8] = tested on: NCI/ADR-RES; assay: Growth inhibition of human NCI/ADR-RES cells after 48 hrs by sulforhodamine B assay; type: functional
# [9] = tested on: 786-0; assay: Growth inhibition of human 786-0 cells after 48 hrs by sulforhodamine B assay; type: functional; details: 786-0, 48 h
# [10] = tested on: NCI-H522; assay: Growth inhibition of human NCI-H522 cells after 48 hrs by sulforhodamine B assay; type: functional; details: NCI-H522, 48 h
# [11] = tested on: SF-295; assay: Growth inhibition of human SF295 cells after 48 hrs by sulforhodamine B assay; type: functional; details: SF-295, 48 h
# [12] = tested on: Malme-3M; assay: Growth inhibition of human MALME-3M cells after 48 hrs by sulforhodamine B assay; type: functional
# [13] = tested on: MDA-MB-231; assay: Growth inhibition of human MDA-MB-231 cells after 48 hrs by sulforhodamine B assay; type: functional; details: MDA-MB-231, 48 h
# [14] = tested on: MDA-N; assay: Growth inhibition of human MDA-N cells after 48 hrs by sulforhodamine B assay; type: functional
# [15] = tested on: Plasmodium falciparum; assay: Antimalarial activity after 72 hrs against chloroquine-resistant Plasmodium falciparum W2 infected erythrocytes by LDH assay; type: functional, organism-based; details: W2, 72 h
# [16] = tested on: SF-268; assay: Growth inhibition of human SF268 cells after 48 hrs by sulforhodamine B assay; type: functional; details: SF-268, 48 h
# [17] = tested on: SW-620; assay: Growth inhibition of human SW620 cells after 48 hrs by sulforhodamine B assay; type: functional; details: SW-620, 48 h
# [18] = tested on: SK-MEL-2; assay: Growth inhibition of human SK-MEL-2 cells after 48 hrs by sulforhodamine B assay; type: functional; details: SK-MEL-2, 48 h
# [19] = tested on: UO-31; assay: Growth inhibition of human UO31 cells after 48 hrs by sulforhodamine B assay; type: functional; details: UO-31, 48 h
# [20] = tested on: CAKI-1; assay: Growth inhibition of human Caki1 cells after 48 hrs by sulforhodamine B assay; type: functional; details: CAKI-1, 48 h
# [21] = tested on: A498; assay: Growth inhibition of human A498 cells after 48 hrs by sulforhodamine B assay; type: functional; details: A498, 48 h
# [22] = tested on: Plasmodium falciparum; assay: Antimalarial activity after 72 hrs against chloroquine-sensitive Plasmodium falciparum D6 infected in erythrocytes by LDH assay; type: functional, organism-based; details: D6, 72 h
# [23] = tested on: SN12C; assay: Growth inhibition of human SN12C cells after 48 hrs by sulforhodamine B assay; type: functional
# [24] = tested on: OVCAR-3; assay: Growth inhibition of human OVCAR-3 cells after 48 hrs by sulforhodamine B assay; type: functional; details: OVCAR-3, 48 h
# [25] = tested on: IGROV-1; assay: Growth inhibition of human IGROV1 cells after 48 hrs by sulforhodamine B assay; type: functional; details: IGROV-1, 48 h
# [26] = tested on: MCF7; assay: Growth inhibition of human MCF7 cells after 48 hrs by sulforhodamine B assay; type: functional; details: MCF7, 48 h
# [27] = tested on: RXF 393; assay: Growth inhibition of human RXF393 cells after 48 hrs by sulforhodamine B assay; type: functional; details: RXF 393, 48 h
# [28] = tested on: NCI-H23; assay: Growth inhibition of human NCI-H23 cells after 48 hrs by sulforhodamine B assay; type: functional; details: NCI-H23, 48 h
# [29] = tested on: BT-549; assay: Growth inhibition of human BT549 cells after 48 hrs by sulforhodamine B assay; type: functional; details: BT-549, 48 h
# [30] = tested on: M14; assay: Growth inhibition of human M14 cells after 48 hrs by sulforhodamine B assay; type: functional; details: M14, 48 h
# [31] = tested on: SNB-19; assay: Growth inhibition of human SNB19 cells after 48 hrs by sulforhodamine B assay; type: functional; details: SNB-19, 48 h
# [32] = tested on: HCT-15; assay: Growth inhibition of human HCT15 cells after 48 hrs by sulforhodamine B assay; type: functional; details: HCT-15, 48 h
# [33] = tested on: SK-OV-3; assay: Growth inhibition of human SKOV3 cells after 48 hrs by sulforhodamine B assay; type: functional; details: SK-OV-3, 48 h
# [34] = tested on: HOP-92; assay: Growth inhibition of human HOP92 cells after 48 hrs by sulforhodamine B assay; type: functional; details: HOP-92, 48 h
# [35] = tested on: HT-29; assay: Growth inhibition of human HT-29 cells after 48 hrs by sulforhodamine B assay; type: functional; details: HT-29, 48 h
# [36] = tested on: OVCAR-4; assay: Growth inhibition of human OVCAR4 cells after 48 hrs by sulforhodamine B assay; type: functional; details: OVCAR-4, 48 h
# [37] = tested on: UACC-257; assay: Growth inhibition of human UACC257 cells after 48 hrs by sulforhodamine B assay; type: functional; details: UACC-257, 48 h
# [38] = tested on: TK-10; assay: Growth inhibition of human TK10 cells after 48 hrs by sulforhodamine B assay; type: functional; details: TK-10, 48 h
# [39] = Growth inhibition of human Hs 578T cells after 48 hrs by sulforhodamine B assay; type: functional
# [40] = tested on: U-251; assay: Growth inhibition of human U251 cells after 48 hrs by sulforhodamine B assay; type: functional; details: U-251, 48 h
# [41] = tested on: A549; assay: Growth inhibition of human A549 cells after 48 hrs by sulforhodamine B assay; type: functional; details: A549, 48 h
# [42] = Selectivity index, ratio of TC50 for african green monkey (Cercopithecus aethiops) Vero cells to IC50 for chloroquine-resistant Plasmodium falciparum W2; type: toxicity, cell-based
# [43] = tested on: COLO 205; assay: Growth inhibition of human COLO205 cells after 48 hrs by sulforhodamine B assay; type: functional; details: COLO 205, 48 h
# [44] = tested on: KM12; assay: Growth inhibition of human KM12 cells after 48 hrs by sulforhodamine B assay; type: functional; details: KM12, 48 h
# [45] = Cytotoxicity against african green monkey Vero cells after 48 hrs by neutral red assay; type: cell-based; details: chlorocebus sabaeus, read-out: TC50
# [46] = tested on: PC-3; assay: Growth inhibition of human PC3 cells after 48 hrs by sulforhodamine B assay; type: functional; details: PC-3, 48 h
# [47] = tested on: MDA-MB-435; assay: Growth inhibition of human MDA-MB-435 cells after 48 hrs by sulforhodamine B assay; type: functional; details: MDA-MB-435, 48 h
# [48] = tested on: K562; assay: Growth inhibition of human K562 cells after 48 hrs by sulforhodamine B assay; type: functional; details: K562, 48 h
# [49] = tested on: SK-MEL-5; assay: Growth inhibition of human SK-MEL-5 cells after 48 hrs by sulforhodamine B assay; type: functional; details: SK-MEL-5, 48 h
# [50] = tested on: HOP-62; assay: Growth inhibition of human HOP62 cells after 48 hrs by sulforhodamine B assay; type: functional; details: HOP-62, 48 h
# [51] = tested on: OVCAR-8; assay: Growth inhibition of human OVCAR8 cells after 48 hrs by sulforhodamine B assay; type: functional; details: OVCAR-8, 48 h
# [52] = Growth inhibition of human […] cells after 48 hrs by sulforhodamine B assay; type: functional
# [53] = tested on: NCI-H226; assay: Growth inhibition of human NCI-H226 cells after 48 hrs by sulforhodamine B assay; type: functional; details: NCI-H226, 48 h
# [54] = tested on: SNB-75; assay: Growth inhibition of human SNB75 cells after 48 hrs by sulforhodamine B assay; type: functional; details: SNB-75, 48 h
# [55] = tested on: ACHN; assay: Growth inhibition of human ACHN cells after 48 hrs by sulforhodamine B assay; type: functional
# [56] = tested on: HCC 2998; assay: Growth inhibition of human HCC2998 cells after 48 hrs by sulforhodamine B assay; type: functional; details: HCC 2998, 48 h
# [57] = tested on: NCI-H460; assay: Growth inhibition of human NCI-H460 cells after 48 hrs by sulforhodamine B assay; type: functional; details: NCI-H460, 48 h
# [58] = tested on: LOX IMVI; assay: Growth inhibition of human LOXIMVI cells after 48 hrs by sulforhodamine B assay; type: functional
# [59] = tested on: SK-MEL-28; assay: Growth inhibition of human SK-MEL-28 cells after 48 hrs by sulforhodamine B assay; type: functional; details: SK-MEL-28, 48 h
# [60] = tested on: OVCAR-5; assay: Growth inhibition of human OVCAR5 cells after 48 hrs by sulforhodamine B assay; type: functional; details: OVCAR-5, 48 h
# [61] = tested on: HL-60; assay: Growth inhibition of human HL-60(TB) cells after 48 hrs by sulforhodamine B assay; type: functional; details: HL-60, 48 h
# [62] = tested on: T47D; assay: Growth inhibition of human T47D cells after 48 hrs by sulforhodamine B assay; type: functional
# [63] = tested on: UACC-62; assay: Growth inhibition of human UACC62 cells after 48 hrs by sulforhodamine B assay; type: functional; details: UACC-62, 48 h
# [64] = tested on: Leishmania donovani; assay: Antileishmanial activity against Leishmania donovani promastigotes after 48 hrs by alamar-blue assay; type: functional, organism-based
smiles,measurement,setting,value
C[C@H]1[C@@H](O[C@@H](C)CO[C@H]2O[C@@H]3O[C@@]4(C)CC[C@H]5[C@H](C)CC[C@@H]([C@H]2C)[C@@]35OO4)O[C@@H]2O[C@@]3(C)CC[C@H]4[C@H](C)CC[C@@H]1[C@@]24OO3,GI50,[1],18 nM
same,GI50,[2],39 nM
same,selectivity ratio,[3],> 21
same,GI50,[4],37 nM
same,GI50,[5],< 10 nM
same,GI50,[6],< 10 nM
same,GI50,[7],88 nM
same,GI50,[8],264 nM
same,GI50,[9],48 nM
same,GI50,[10],54 nM
same,GI50,[11],92 nM
same,GI50,[12],37 nM
same,GI50,[13],80 nM
same,GI50,[14],42 nM
same,IC50,[15],5100 nM
same,GI50,[16],65 nM
same,GI50,[17],< 10 nM
same,GI50,[18],62 nM
same,GI50,[19],31 nM
same,GI50,[20],376 nM
same,GI50,[21],409 nM
same,IC50,[22],3800 nM
same,GI50,[23],25 nM
same,GI50,[24],46 nM
same,GI50,[25],130 nM
same,GI50,[26],< 10 nM
same,GI50,[27],< 10 nM
same,GI50,[28],37 nM
same,GI50,[29],58 nM
same,GI50,[30],18 nM
same,GI50,[31],104 nM
same,GI50,[32],< 10 nM
same,GI50,[33],23600 nM
same,GI50,[34],63 nM
same,GI50,[35],12 nM
same,GI50,[36],72 nM
same,GI50,[37],21 nM
same,GI50,[38],17900 nM
same,GI50,[39],21 nM
same,GI50,[40],< 10 nM
same,GI50,[41],18 nM
same,selectivity ratio,[42],> 15
same,GI50,[43],12 nM
same,GI50,[44],< 10 nM
same,CC50 at 48 h,[45],> 78000 nM
same,GI50,[46],9 nM
same,GI50,[47],27 nM
same,GI50,[48],< 10 nM
same,GI50,[49],29 nM
same,GI50,[50],15900 nM
same,GI50,[51],34 nM
same,GI50,[52],< 10 nM
same,GI50,[53],226 nM
same,GI50,[54],332 nM
same,GI50,[55],33 nM
same,GI50,[56],49 nM
same,GI50,[57],27 nM
same,GI50,[58],179 nM
same,GI50,[59],16300 nM
same,GI50,[60],27 nM
same,GI50,[61],< 10 nM
same,GI50,[62],< 10 nM
same,GI50,[63],16 nM
N=C(N)c1ccc(OCCCCCOc2ccc(C(=N)N)cc2)cc1 [PENTAMIDINE],IC50,[64],3500 nM
same,IC90,[64],14700 nM
